Experiments:
[1] = tested on: wet algae; assay: Algal cell lysis with ionic liquid and oil extraction / transesterification; type: cell-based; conditions: for recovered oil (% of the total algal oil content): wet algae 5 g, water content 85%, cell lysis 80° C. 1 h, hexane added
[2] = in water; cited from earlier work

Row | Compound | recovered oil (% of the total algal oil content) [1] | pKa water [2] | Oil extraction (%) with respect the total algal oil content ([1]; Example 9, procedure of Example 1, 100° C. (10 atm for TMG and DBU), IL/Algae/MeOH 5:1:1.5 (5:1 for [BMIM]Cl))
1 | 1-ethyl-3-methylimidazolium ethyl sulfate [[EMIM] Ethyl Sulfate] | 50-52% |  | 
2 | C1CN2CCN1CC2 [Dabco, triethylenediamine] |  | 8.8 | 
3 | CN1CCCC1 [N-methylpyrrolidine] |  | 10.5 | 
4 | CN(C)C(=N)N(C)C [Tetramethylguanidine (TMG), 1,1,3,3-tetramethylguanidine] |  | 15.2 | 
5 | CC(=O)[O-].CCCCn1cc[n+](C)c1 [[BMIM] Acetate, 1-butyl-3-methylimidazolium acetate] | 40% |  | 
6 | CCCC[n+]1ccn(C)c1.[Cl-] [[BMIM]Cl, 1-methyl-3-butylimidazolium chloride] | 40-60% |  | 40-60%

Reference: US10035971B2, “Method for treating algae” (STAMICARBON B.V., priority 2014, dated 2018)
